Among the data in ChEMBL document CHEMBL4619750, “Benzoxepinones: A new isoform-selective class of tumor associated carbonic anhydrase inhibitors” (Bioorg Med Chem, 2020) are Ki values, retold here.

pKi: −log10 of the molar value.

As a reminder, the pKi is the negative decadic logarithm of the Ki, by convention in mol/L.

Assay [1] addresses Carbonic anhydrase 9 (Homo sapiens, UniProt Q16790). Nature of the assay: Inhibition of human carbonic anhydrase 9 assessed as inhibitory constant incubated for 6 hrs by stopped-flow CO2 hydration assay.
Assay [2] has as its target Carbonic anhydrase 1 (Homo sapiens, UniProt P00915). Put plainly: Inhibition of human carbonic anhydrase 1 assessed as inhibitory constant incubated for 6 hrs by stopped-flow CO2 hydration assay.
Assay [3] addresses Carbonic anhydrase 2 (Homo sapiens, UniProt P00918). Nature of the assay: Inhibition of human carbonic anhydrase 2 assessed as inhibitory constant incubated for 6 hrs by stopped-flow CO2 hydration assay.

Carbonic anhydrase 1, sequence (P00915 whole entry): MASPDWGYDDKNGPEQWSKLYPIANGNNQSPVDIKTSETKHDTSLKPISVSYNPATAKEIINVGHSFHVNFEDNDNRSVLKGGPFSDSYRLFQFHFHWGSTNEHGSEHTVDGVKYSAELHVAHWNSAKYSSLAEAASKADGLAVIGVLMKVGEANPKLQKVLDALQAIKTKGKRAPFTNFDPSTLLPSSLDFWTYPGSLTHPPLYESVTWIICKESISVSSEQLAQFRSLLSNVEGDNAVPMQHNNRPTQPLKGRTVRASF

`COC(=O)C1=Cc2cc(C(=O)OC)ccc2OC(=O)C1`: the pKi in assay [1] was 7.41; in assay [2], less than 4.00; in assay [3] it was less than 4.00.
Regarding `COC(=O)C1=Cc2ccccc2OC(=O)C1`, the negative-log Ki (pKi) is 6.60 in assay [1], less than 4.00 in assay [2] and less than 4.00 in assay [3].
As to `COC(=O)C1=Cc2cccc(OC)c2OC(=O)C1`, the negative logarithm of the Ki (pKi) is 7.33 in assay [1], less than 4.00 in assay [2] and less than 4.00 in assay [3].
Take `COC(=O)C1=Cc2ccc(Cl)cc2OC(=O)C1`: the pKi in assay [1] was 7.11; in assay [2] it was less than 4.00; in assay [3], less than 4.00.
Consider `COC(=O)C1=Cc2cc(C(C)(C)C)ccc2OC(=O)C1`, for which the pKi in assay [1] is 7.43; in assay [2] it was less than 4.00; in assay [3], 4.07.
In the same order, the values of `COC(=O)C1=Cc2cc(OC)ccc2OC(=O)C1` are 7.40, less than 4.00 and 4.18.
With `COC(=O)C1=Cc2cc(Cl)ccc2OC(=O)C1`, the pKi in assay [1] is 7.70; in assay [2] it was less than 4.00; in assay [3] it was 4.12.
On to `COC(=O)C1=Cc2cc(C)ccc2OC(=O)C1`, for which the results for the pKi in assay [1], in assay [2] and in assay [3] were 7.14, less than 4.00 and less than 4.00, respectively.
With `COC(=O)C1=Cc2ccc(C)cc2OC(=O)C1`, the negative logarithm of the Ki (pKi) in assay [1] was 6.77; in assay [2] it was less than 4.00; in assay [3] it was less than 4.00.
As to `COC(=O)C1=Cc2ccc(OC)cc2OC(=O)C1`, the negative-log Ki (pKi) in assay [1] was 7.08; in assay [2] it was less than 4.00; in assay [3], less than 4.00.
On to `COC(=O)C1=Cc2ccc3ccccc3c2OC(=O)C1`, for which the pKi in assay [1] was 6.52; in assay [2] it was less than 4.00; in assay [3] it was less than 4.00.
As for `CCN(CC)c1ccc2c(c1)OC(=O)CC(C(=O)OC)=C2`, the negative-log Ki (pKi) in assay [1] was 7.03; in assay [2], less than 4.00; in assay [3] it was less than 4.00.
